Source: patent US6262067A, “Polymorphs of a crystalline azo-bicyclo 2,2,2 OCT-3-yl amine dihydrochloride and their pharmaceutical compositions” (priority 2000, dated 2001)
Structures can show the parent of a compound that is named as a salt. Where two headings read alike, the source gives them in different places. Values belong to the compound of their own block, whether it stands above or below them.

Experiments:
Assay type in all cases: physicochemical
[1] = Solubility of polymorphs (aqueous intrinsic / aqueous equilibrium solubility)
[2] = Thermal water loss and degradation (TGA/DTA, DSC, fusion microscopy)
[3] = Ambient polymorph screen with wet solvents (slurry conversion, relative form stability); details: for Polymorph Isolated: starting Form I, ambient
[4] = Hygroscopicity / water uptake and loss at relative humidity (VTI)

Aqueous Equilibrium ([1]; aqueous): > 1155 mg/mL
solubility in wet THF (in words) ([1]; slurried in THF with >5% H2 O): solubility increases dramatically
solubility ([1]; water, aqueous, intrinsic, read-out: Aqueous Intrinsic Solubility): > 648 mg/mL
DSC degradation temperature ([2]; DSC): ~ 230 °C
DSC water loss (in words) ([2]; DSC): undetected
TGA/DTA degradation temperature [2]: 194 °C
Fusion Microscopy water loss (in words) ([2]; fusion microscopy): Slow water loss
conversion to Form II in slurry ([3]; THF with about 3% to 5% H2 O): the conversion is to Form II
conversion to Form II in slurry ([3]; THF with less than 2% H2 O): no conversion to Form II
Polymorph Isolated ([3]; Acetone/5% H2 O, slurry): Form II
Polymorph Isolated ([3]; Acetonitrile/5% H2 O, slurry): Form I
Polymorph Isolated ([3]; Ethyl Acetate/3.5% H2 O, slurry): Form II
Polymorph Isolated ([3]; H2 O, solutions seeded with Form II): Form II
Polymorph Isolated ([3]; IPO/5% H2 O, slurry): Form I
Polymorph Isolated ([3]; Tetrahydrofuran/5% H2 O, slurry): Form II
hygroscopicity (in words) [4]: nonhydroscopic
VTI (% H2 O absorbed) [4]: 0.8 % wt.
SMILES: COc1ccc(C(C)C)cc1CN[C@H]1C2CCN(CC2)[C@H]1C(c1ccccc1)c1ccccc1 [Form I, (2-Benzhydryl-1-azo-bicyclo 2,2,2oct-3-yl)-(5-isoproyl-2-methoxybenzyl)-amine]

Aqueous Equilibrium ([1]; aqueous): 395 mg/mL
Aqueous Intrinsic Solubility ([1]; aqueous, intrinsic): < 329 mg/mL
solubility ([1]; medium not stated): 390-400 milligrams per milliliter
TGA/DTA degradation temperature [2]: 178 °C
Fusion Microscopy water loss (in words) ([2]; fusion microscopy): Sharp water loss
Fusion Microscopy water loss temperature ([2]; fusion microscopy): ~ 100 °C
VTI (% H2 O absorbed) [4]: 0.4 % wt.
SMILES: COc1ccc(C(C)C)cc1CN[C@H]1C2CCN(CC2)[C@H]1C(c1ccccc1)c1ccccc1 [Form II, (2-Benzhydryl-1-azo-bicyclo 2,2,2oct-3-yl)-(5-isoproyl-2-methoxybenzyl)-amine]
relative stability of the polymorph ([3]; compared with Form I): lower energy, more stable form than Form I

hygroscopicity (in words) [4]: hygroscopic
hygroscopicity (humidity at which hygroscopic and forms dihydrates) ([4]; about 52% humidity or greater): ≥ 52%
SMILES: COc1ccc(C(C)C)cc1CN[C@H]1C2CCN(CC2)[C@H]1C(c1ccccc1)c1ccccc1 [anhydrous dihydrochloride, anhydrous dihydrochloride of (2-Benzhydryl-1-azo-bicyclo 2,2,2oct-3-yl)-(5-isoproyl-2-methoxybenzyl)-amine]
